#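 Results reflect a 48-hour exposure of cells in 96-well plates to compound at five concentrations. GI50 = concentration required for 50% inhibition of growth. TGI: concentration producing complete growth inhibition.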
# Key:
# Assay in all cases: growth of human tumour cells (NCI), 48 h
# [1] = tested on: 786-0 renal
# [2] = tested on: A498 renal
# [3] = tested on: A549 NSCLC
# [4] = tested on: ACHN renal
# [5] = tested on: BT-549 breast
# [6] = tested on: CAKI-1 renal
# [7] = tested on: CCRF-CEM leukemia
# [8] = tested on: COLO 205 colon
# [9] = tested on: DU-145 prostate
# [10] = tested on: EKVX NSCLC
# [11] = tested on: HCC-2998 colon
# [12] = tested on: HCT-116 colon
# [13] = tested on: HCT-15 colon
# [14] = tested on: HL-60(TB) leukemia
# [15] = tested on: HOP-62 NSCLC
# [16] = tested on: HOP-92 NSCLC
# [17] = tested on: HS 578T breast
# [18] = tested on: HT29 colon
# [19] = tested on: IGROV1 ovarian
# [20] = tested on: K-562 leukemia
# [21] = tested on: KM12 colon
# [22] = tested on: LOX IMVI melanoma
# [23] = tested on: M14 melanoma
# [24] = tested on: MCF7 breast
# [25] = tested on: MDA-MB-231 breast
# [26] = tested on: MDA-MB-435
# [27] = tested on: MOLT-4 leukemia
# [28] = tested on: NCI-H226 lung
# [29] = tested on: NCI-H23 lung
# [30] = tested on: NCI-H460 lung
# [31] = tested on: NCI-H522 lung
# [32] = tested on: NCI/ADR-RES ovarian
# [33] = tested on: OVCAR-3 ovarian
# [34] = tested on: OVCAR-4 ovarian
# [35] = tested on: OVCAR-5 ovarian
# [36] = tested on: OVCAR-8 ovarian
# [37] = tested on: PC-3 prostate
# [38] = tested on: RXF 393 renal
# [39] = tested on: SF-268 CNS
# [40] = tested on: SF-295 CNS
# [41] = tested on: SF-539 CNS
# [42] = tested on: SK-MEL-2 melanoma
# [43] = tested on: SK-MEL-28 melanoma
# [44] = tested on: SK-MEL-5 melanoma
# [45] = tested on: SK-OV-3 ovarian
# [46] = tested on: SN12C renal
# [47] = tested on: SNB-19 CNS
# [48] = tested on: SR leukemia
# [49] = tested on: SW-620 colon
# [50] = tested on: T-47D breast
# [51] = tested on: TK-10 renal
# [52] = tested on: U251 CNS
# [53] = tested on: UACC-257 melanoma
# [54] = tested on: UACC-62 melanoma
# [55] = tested on: UO-31 renal
smiles,measurement,setting,value
COc1cc(/C=C2\CC3C4CC=C5CC(OC(C)=O)CC[C@]5(C)C4CC[C@]3(C)C2=O)ccc1OCCN1CCCC1 (some centres not stated),GI50,[1],4.51 µM
same,TGI,[1],14 µM
same,GI50,[2],23.7 µM
same,TGI,[2],43.5 µM
same,GI50,[3],7.98 µM
same,TGI,[3],> 48.6 µM
same,GI50,[4],5.52 µM
same,TGI,[4],17.9 µM
same,GI50,[5],14.7 µM
same,TGI,[5],38.3 µM
same,GI50,[6],13.1 µM
same,TGI,[6],27 µM
same,GI50,[7],0.268 µM
same,TGI,[7],1.78 µM
same,GI50,[8],4.83 µM
same,TGI,[8],> 63.8 µM
same,GI50,[9],13.6 µM
same,TGI,[9],26.6 µM
same,GI50,[10],18 µM
same,TGI,[10],35.4 µM
same,GI50,[11],12.5 µM
same,TGI,[11],25 µM
same,GI50,[12],1.52 µM
same,TGI,[12],3.14 µM
same,GI50,[13],1.91 µM
same,TGI,[13],5.3 µM
same,GI50,[14],2.78 µM
same,TGI,[14],6.89 µM
same,GI50,[15],9.52 µM
same,TGI,[15],23 µM
same,GI50,[16],13.5 µM
same,TGI,[16],28.6 µM
same,GI50,[17],20 µM
same,TGI,[17],42.7 µM
same,GI50,[18],0.646 µM
same,GI50,[19],5.81 µM
same,TGI,[19],> 44.7 µM
same,GI50,[20],1.08 µM
same,TGI,[20],7.41 µM
same,GI50,[21],3.89 µM
same,TGI,[21],15 µM
same,GI50,[22],0.248 µM
same,TGI,[22],2.55 µM
same,GI50,[23],1.42 µM
same,TGI,[23],2.9 µM
same,GI50,[24],2.69 µM
same,TGI,[24],> 22.4 µM
same,GI50,[25],3.39 µM
same,TGI,[25],11.2 µM
same,GI50,[26],3.38 µM
same,TGI,[26],13.1 µM
same,GI50,[27],1.87 µM
same,TGI,[27],8.5 µM
same,GI50,[28],14.1 µM
same,TGI,[28],30.9 µM
same,GI50,[29],14.2 µM
same,TGI,[29],27.7 µM
same,GI50,[30],2.54 µM
same,GI50,[31],10.5 µM
same,TGI,[31],26.6 µM
same,GI50,[32],12 µM
same,TGI,[32],24.9 µM
same,GI50,[33],3 µM
same,TGI,[33],10.5 µM
same,GI50,[34],2.38 µM
same,TGI,[34],> 19.6 µM
same,GI50,[35],13.4 µM
same,TGI,[35],26.4 µM
same,GI50,[36],13.8 µM
same,TGI,[36],47 µM
same,GI50,[37],8.47 µM
same,TGI,[37],23.2 µM
same,GI50,[38],3.01 µM
same,TGI,[38],11.6 µM
same,GI50,[39],8.53 µM
same,TGI,[39],26.7 µM
same,GI50,[40],4.8 µM
same,TGI,[40],11.8 µM
same,GI50,[41],3.63 µM
same,TGI,[41],9.82 µM
same,GI50,[42],6.99 µM
same,TGI,[42],23.7 µM
same,GI50,[43],2.54 µM
same,GI50,[44],1.38 µM
same,TGI,[44],2.86 µM
same,GI50,[45],23.7 µM
same,TGI,[45],> 63.9 µM
same,GI50,[46],13.7 µM
same,TGI,[46],26.6 µM
same,GI50,[47],23.6 µM
same,TGI,[47],> 66.9 µM
same,GI50,[48],0.708 µM
same,TGI,[48],2.87 µM
same,GI50,[49],4.89 µM
same,TGI,[49],22.9 µM
same,GI50,[50],5.4 µM
same,TGI,[50],> 91 µM
same,GI50,[51],7.25 µM
same,TGI,[51],19.6 µM
same,GI50,[52],4.2 µM
same,TGI,[52],14.7 µM
same,GI50,[53],2.09 µM
same,TGI,[53],4.2 µM
same,GI50,[54],1.93 µM
same,TGI,[54],3.85 µM
same,GI50,[55],8.67 µM
same,TGI,[55],23.5 µM

# Reference: PubChem BioAssay (NCI)
